Paper PMC12152945, “Computational Design of Lysine Targeting Covalent Binders Using Rosetta” (Journal of Chemical Information and Modeling, 2025)

Key:
MKK7 = molecular target: T1, MKK7 (Homo sapiens, UniProt O14733); assay: radiometric […] kinase assay ([…]PanQinase); assay type: biochemical; details: 3 μM ATP, 75.6 nM MKK7, JNK1 K55R K56R substrate; 3 mM MgCl2, 3 mM MnCl2, pH 7.5, 30 °C; 30 min preincubation; reversible covalent (imine, Lys221)
T1 construct: gene MAP2K7; GST or His-tagged kinase from Reaction Biology (33PanQinase assay)
T1 sequence (O14733 2-419): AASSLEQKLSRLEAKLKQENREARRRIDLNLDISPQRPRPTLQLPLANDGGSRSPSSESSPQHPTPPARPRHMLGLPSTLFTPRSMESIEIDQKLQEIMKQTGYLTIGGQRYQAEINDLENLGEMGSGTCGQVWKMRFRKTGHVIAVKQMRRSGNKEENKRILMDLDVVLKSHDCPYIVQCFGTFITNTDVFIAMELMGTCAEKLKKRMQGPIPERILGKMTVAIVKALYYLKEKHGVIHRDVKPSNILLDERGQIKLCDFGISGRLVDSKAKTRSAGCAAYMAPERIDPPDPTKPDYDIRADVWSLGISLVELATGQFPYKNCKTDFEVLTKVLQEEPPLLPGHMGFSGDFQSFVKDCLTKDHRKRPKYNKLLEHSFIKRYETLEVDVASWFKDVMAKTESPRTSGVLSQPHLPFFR

MKK7 kinase domain = molecular target: T2, MKK7 kinase domain (Homo sapiens, UniProt O14733); assay: intact protein LC/MS; assay type: binding; details: covalent, reversible imine trapped with 5 mM NaBH4; 2 μM protein, HEPES pH 7.5, overnight 4 °C
T2 construct: gene MAP2K7; His-tagged kinase domain for intact-protein LC/MS
T2 sequence (O14733 117-419 limits assumed): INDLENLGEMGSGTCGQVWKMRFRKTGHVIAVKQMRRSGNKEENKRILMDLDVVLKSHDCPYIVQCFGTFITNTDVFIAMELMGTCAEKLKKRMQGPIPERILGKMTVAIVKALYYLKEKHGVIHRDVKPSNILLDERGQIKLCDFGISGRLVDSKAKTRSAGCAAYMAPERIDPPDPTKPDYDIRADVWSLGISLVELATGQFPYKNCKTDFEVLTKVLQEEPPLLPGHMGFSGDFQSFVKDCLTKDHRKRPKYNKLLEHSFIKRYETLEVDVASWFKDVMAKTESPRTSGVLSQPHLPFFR

SMILES: O=Cc1ccc(-c2n[nH]c3ccccc23)cc1O [compound 1]
- IC50 (MKK7): 738 nM
- intact protein LC/MS (MKK7 kinase domain): Significant labeling was detected only after the reduction of the complex
